{"source": "ChEMBL document CHEMBL1201862", "about": "“PubChem BioAssay data set” (2004)", "key": {"[1]": {"target": "T1, Oxysterols receptor LXR-beta (Homo sapiens, UniProt P55055)", "T1 sequence (P55055 whole entry)": "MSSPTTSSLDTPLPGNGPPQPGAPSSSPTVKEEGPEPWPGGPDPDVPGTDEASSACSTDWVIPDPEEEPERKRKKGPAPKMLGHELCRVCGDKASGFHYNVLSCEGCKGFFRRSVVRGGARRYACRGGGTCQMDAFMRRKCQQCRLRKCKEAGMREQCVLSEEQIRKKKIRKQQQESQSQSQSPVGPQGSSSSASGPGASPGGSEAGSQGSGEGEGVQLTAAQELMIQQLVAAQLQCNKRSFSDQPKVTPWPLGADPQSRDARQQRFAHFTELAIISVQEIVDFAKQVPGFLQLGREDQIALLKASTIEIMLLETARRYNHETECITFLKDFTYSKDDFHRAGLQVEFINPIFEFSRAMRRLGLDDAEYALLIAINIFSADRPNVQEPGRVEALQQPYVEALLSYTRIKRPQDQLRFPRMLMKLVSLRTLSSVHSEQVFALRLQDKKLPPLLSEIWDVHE", "assay_type": "functional, cell-based"}, "[2]": {"assay": "cells"}, "[3]": {"target": "T1, Oxysterols receptor LXR-beta", "assay_type": "functional, cell-based", "remark": "listed apart in the source"}, "[4]": {"assay": "Luminescence-based cell-based high throughput dose response assay to identify activators of the DAF-12 from the parasite S. stercoralis (ssDAF-12).", "assay_type": "functional"}, "[5]": {"target": "Arf-GAP with SH3 domain, ANK repeat and PH domain-containing protein 1 (Homo sapiens, UniProt Q9ULH1)", "sequence (Q9ULH1 whole entry, the tested form may be a part)": "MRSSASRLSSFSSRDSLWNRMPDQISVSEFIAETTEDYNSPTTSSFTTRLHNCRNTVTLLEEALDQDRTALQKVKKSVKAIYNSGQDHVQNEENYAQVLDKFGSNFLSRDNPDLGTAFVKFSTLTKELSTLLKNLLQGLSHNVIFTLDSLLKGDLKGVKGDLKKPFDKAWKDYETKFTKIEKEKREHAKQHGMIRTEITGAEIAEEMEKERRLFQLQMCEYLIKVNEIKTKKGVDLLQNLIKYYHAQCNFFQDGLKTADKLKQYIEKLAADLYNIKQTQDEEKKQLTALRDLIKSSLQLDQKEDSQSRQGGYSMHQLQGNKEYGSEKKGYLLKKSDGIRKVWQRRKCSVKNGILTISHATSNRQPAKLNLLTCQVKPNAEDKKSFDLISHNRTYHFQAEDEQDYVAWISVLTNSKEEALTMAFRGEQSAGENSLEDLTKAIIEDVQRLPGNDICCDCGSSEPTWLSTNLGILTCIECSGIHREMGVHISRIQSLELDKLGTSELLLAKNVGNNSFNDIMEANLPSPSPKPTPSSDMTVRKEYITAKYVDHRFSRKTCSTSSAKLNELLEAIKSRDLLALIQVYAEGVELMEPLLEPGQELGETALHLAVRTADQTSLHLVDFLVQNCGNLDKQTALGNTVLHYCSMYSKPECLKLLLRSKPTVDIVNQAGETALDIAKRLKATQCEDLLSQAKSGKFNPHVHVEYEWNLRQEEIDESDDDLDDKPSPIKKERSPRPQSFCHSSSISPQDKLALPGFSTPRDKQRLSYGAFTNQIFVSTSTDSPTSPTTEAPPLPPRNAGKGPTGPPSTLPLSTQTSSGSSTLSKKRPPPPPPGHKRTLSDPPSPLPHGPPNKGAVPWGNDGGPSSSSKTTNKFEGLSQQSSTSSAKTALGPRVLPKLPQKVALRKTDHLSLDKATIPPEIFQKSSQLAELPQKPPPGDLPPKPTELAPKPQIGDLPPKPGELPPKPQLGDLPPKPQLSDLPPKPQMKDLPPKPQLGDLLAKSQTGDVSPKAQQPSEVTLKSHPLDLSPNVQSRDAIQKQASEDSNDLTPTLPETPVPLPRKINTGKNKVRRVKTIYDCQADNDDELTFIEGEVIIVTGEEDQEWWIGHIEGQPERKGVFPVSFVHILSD", "assay_type": "functional"}, "[6]": {"assay": "reduced cellular PGC1a acetyl-lysine signal – cell-based, cherry-picked samples, dose response (AID 720514);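 note: potency may reflect raised or lowered acetylation signal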", "assay_type": "functional"}, "[7]": {"assay": "viability loss in CEM21 cells – cell-based, plate reader, dry powder, cytotoxicity control, dose response (AID 687026)", "assay_type": "functional"}, "[8]": {"assay": "off-target signal loss in HeLa-CEM21 co-culture – HeLa F-luc CTL cells, cherry-picked, counter-screen for HIV-1 Env fusion inhibitor project, dose response (AID 652040);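 note: potency for signal decrease marking cytotoxic or nonspecific inhibition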", "assay_type": "functional, cell-based"}, "[9]": {"assay": "blockers of HIV-1 envelope-mediated cell-cell fusion – cherry-pick, dose response (AID 652057)", "assay_type": "functional, cell-based"}, "[10]": {"assay": "luciferase signal loss, tTA control fusion, HeLa F-luc tTA cells, dry powder, counter-screen for HIV Env fusion inhibitor project, dose response (AID 687021)", "assay_type": "functional, cell-based"}, "[11]": {"assay": "inhibition of Env-driven cell fusion – HIV entry, plate reader, dry powder, dose response (AID 687023)", "assay_type": "functional, cell-based"}, "[12]": {"assay": "HIV-1 AD8 envelope cell-cell fusion blockers – cherry-pick, dose response (AID 652062);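 note: potency is for inhibitors of fusion seen as a drop in luminescence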", "assay_type": "functional, cell-based"}, "[13]": {"target": "T2, Microphthalmia-associated transcription factor (Homo sapiens, UniProt O75030)", "T2 sequence (O75030 whole entry)": "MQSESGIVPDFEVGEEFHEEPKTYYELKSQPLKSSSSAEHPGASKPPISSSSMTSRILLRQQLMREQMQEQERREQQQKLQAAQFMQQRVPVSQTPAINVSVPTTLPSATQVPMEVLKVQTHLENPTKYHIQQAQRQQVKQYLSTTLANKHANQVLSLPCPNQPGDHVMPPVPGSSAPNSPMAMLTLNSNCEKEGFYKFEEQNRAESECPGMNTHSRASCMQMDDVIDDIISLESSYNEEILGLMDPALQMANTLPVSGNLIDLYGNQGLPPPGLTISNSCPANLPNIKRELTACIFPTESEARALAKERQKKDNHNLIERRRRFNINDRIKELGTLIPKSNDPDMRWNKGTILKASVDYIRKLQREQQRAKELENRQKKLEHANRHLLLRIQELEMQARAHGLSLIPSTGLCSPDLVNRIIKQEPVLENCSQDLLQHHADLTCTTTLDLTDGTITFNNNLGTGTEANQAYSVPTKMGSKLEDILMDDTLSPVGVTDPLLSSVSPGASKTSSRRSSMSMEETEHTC", "assay": "reducers of TRPM1 reporter luminescence, concentration series – cell-based, SK-MEL-5, cherry-picked, set 3, MITF inhibitor project, dose response (AID 493073)", "assay_type": "functional"}, "[14]": {"assay": "blockers of HIV-1 ZM109 envelope-driven cell-cell fusion – HeLa effector, CEM target cells, luciferase, cherry-pick, dose response (AID 652058)", "assay_type": "functional, cell-based"}, "[15]": {"target": "T3, Matrix metalloproteinase-14 (Homo sapiens, UniProt P50281)", "assay": "Dose Response confirmation of uHTS hits for a small molecule inhibitors of MT1-MMP activation in a fluorescence assay set 1.", "assay_type": "functional"}, "[16]": {"target": "T3, Matrix metalloproteinase-14", "assay": "SAR confirmation of uHTS hits for a small molecule inhibitors of MT1-MMP activation in a fluorescence assay.", "assay_type": "functional"}, "[17]": {"target": "Galanin receptor type 3 (Homo sapiens, UniProt O60755)", "sequence (O60755 whole entry)": "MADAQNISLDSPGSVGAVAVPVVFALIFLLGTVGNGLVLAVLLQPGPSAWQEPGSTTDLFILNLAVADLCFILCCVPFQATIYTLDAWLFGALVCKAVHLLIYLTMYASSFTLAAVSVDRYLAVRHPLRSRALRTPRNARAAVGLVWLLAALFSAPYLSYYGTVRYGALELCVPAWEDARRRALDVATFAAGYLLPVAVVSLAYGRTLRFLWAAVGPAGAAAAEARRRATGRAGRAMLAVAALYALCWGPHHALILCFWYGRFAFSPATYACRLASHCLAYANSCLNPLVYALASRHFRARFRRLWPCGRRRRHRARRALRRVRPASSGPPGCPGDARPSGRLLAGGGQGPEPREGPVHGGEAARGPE", "assay": "Fluorescence-based cell-based primary high throughput dose response assay to identify antagonists of the Galanin Receptor 3 (GalR3).", "assay_type": "functional"}, "[18]": {"assay": "cells", "assay_type": "functional, cell-based", "details": "HEK-CNG"}, "[19]": {"assay": "Counterscreen for antagonists of the human trace amine associated receptor 1 (hTAAR1): Fluorescence-based cell-based high throughput dose response assay to identify nonselective Ga16 antagonists.", "assay_type": "functional"}, "[20]": {"target": "T4, Trace amine-associated receptor 1 (Homo sapiens, UniProt Q96RJ0)", "T4 sequence (Q96RJ0 whole entry)": "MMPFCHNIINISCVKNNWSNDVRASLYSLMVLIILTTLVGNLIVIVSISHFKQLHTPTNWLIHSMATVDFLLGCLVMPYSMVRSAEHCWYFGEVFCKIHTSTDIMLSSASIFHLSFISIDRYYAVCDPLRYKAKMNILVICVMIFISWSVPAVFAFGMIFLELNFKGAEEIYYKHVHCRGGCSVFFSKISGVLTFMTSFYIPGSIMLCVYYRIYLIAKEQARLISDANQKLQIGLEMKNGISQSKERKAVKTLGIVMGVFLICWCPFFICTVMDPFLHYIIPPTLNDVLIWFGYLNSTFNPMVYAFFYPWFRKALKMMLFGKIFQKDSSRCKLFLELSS", "assay": "Fluorescence-based cell-based high throughput dose response assay to identify antagonists of the human trace amine associated receptor 1 (TAAR1).", "assay_type": "functional"}, "[21]": {"target": "T4, Trace amine-associated receptor 1", "assay": "Counterscreen for antagonists of the human trace amine associated receptor 1 (hTAAR1): Fluorescence-based cell-based high throughput dose response assay to identify TAAR1 Agonists.", "assay_type": "functional"}, "[22]": {"assay": "Counterscreen for […] of the human trace amine associated receptor 1 (TAAR1): Fluorescence-based cell-based high throughput dose response assay to identify nonselective Ga16 agonists.", "assay_type": "functional"}, "[23]": {"target": "Long-chain-fatty-acid--AMP ligase FadD28 (Mycobacterium tuberculosis, UniProt P9WQ59)", "sequence (P9WQ59 whole entry)": "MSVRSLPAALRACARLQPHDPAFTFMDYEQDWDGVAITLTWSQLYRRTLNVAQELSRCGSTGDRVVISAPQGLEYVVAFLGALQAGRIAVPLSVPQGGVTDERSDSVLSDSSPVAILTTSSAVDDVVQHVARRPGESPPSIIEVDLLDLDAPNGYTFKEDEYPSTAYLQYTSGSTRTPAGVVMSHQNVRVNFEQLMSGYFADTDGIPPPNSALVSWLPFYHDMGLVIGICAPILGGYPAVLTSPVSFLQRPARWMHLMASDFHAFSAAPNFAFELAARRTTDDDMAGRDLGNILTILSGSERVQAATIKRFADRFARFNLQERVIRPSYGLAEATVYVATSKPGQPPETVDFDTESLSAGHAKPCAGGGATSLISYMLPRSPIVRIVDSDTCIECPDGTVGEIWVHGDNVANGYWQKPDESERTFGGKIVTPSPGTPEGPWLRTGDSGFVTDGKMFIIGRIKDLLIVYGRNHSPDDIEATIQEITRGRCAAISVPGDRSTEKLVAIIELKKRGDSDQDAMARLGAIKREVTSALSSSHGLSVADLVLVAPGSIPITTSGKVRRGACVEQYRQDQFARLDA", "assay": "Fluorescence polarization aasay to screen for inhibitors that compete for the binding of FadD28 to a bisubstrate Measured in Biochemical System Using Plate Reader - 2147-01_Inhibitor_Dose_CherryPick_Activity.", "assay_type": "functional, Mycobacterium tuberculosis H37Rv"}}, "note": "“And” between values parts separate entries of the source, which are not always exact repeats. Identical values can stand only once. The source made the active and inactive calls.", "data": [{"smiles": "CCOC(=O)CSc1nc(-c2ccncc2)ccc1C#N", "values": [{"measurement": "EC50", "setting": "[1]", "result": "> 67.5 µM (inactive)"}]}, {"smiles": "COc1ccc(Nc2nc(-c3ccccc3)cs2)cc1", "values": [{"measurement": "EC50", "setting": "[2]", "result": "> 67.5 µM (inactive)"}, {"measurement": "EC50", "setting": "[3]", "result": "> 67.5 µM (inactive)"}, {"measurement": "IC50", "setting": "[4]", "result": "> 67.5 µM (inactive)"}]}, {"smiles": "Clc1ccc(OCc2nn3c(-c4ccco4)nnc3s2)c(Cl)c1", "values": [{"measurement": "IC50", "setting": "[5]", "result": "22.8 µM (inactive)"}]}, {"smiles": "Cc1cc(-c2ccc(Cl)cc2)n2ncnc2n1", "values": [{"measurement": "AC50", "setting": "[6]", "result": "29.8 µM (active)"}]}, {"smiles": "Oc1ccc(CNc2ccccc2F)c2cccnc12", "values": [{"measurement": "AC50", "setting": "[7]", "result": "50.8 µM (active) and 64.1 µM (active)"}, {"measurement": "AC50", "setting": "[8]", "result": "36 µM (active)"}, {"measurement": "AC50", "setting": "[9]", "result": "5.19 µM (active)"}, {"measurement": "AC50", "setting": "[10]", "result": "> 70 µM (inactive)"}, {"measurement": "AC50", "setting": "[11]", "result": "> 70 µM (inactive)"}, {"measurement": "AC50", "setting": "[12]", "result": "9.33 µM (active)"}, {"measurement": "AC50", "setting": "[13]", "result": "15.1 µM (active)"}, {"measurement": "AC50", "setting": "[14]", "result": "1.58 µM (active)"}]}, {"smiles": "COc1ccc(C)cc1Nc1nc(-c2c(C)[nH]c3ccccc23)cs1", "values": [{"measurement": "IC50", "setting": "[15]", "result": "22.1 µM (inactive)"}, {"measurement": "IC50", "setting": "[16]", "result": "> 80 µM (inactive)"}]}, {"smiles": "Cc1nn(C)c(Nc2ccc(Br)cc2)c1Br", "values": [{"measurement": "IC50", "setting": "[17]", "result": "0.155 µM (active)"}, {"measurement": "EC50", "setting": "[18]", "result": "> 29.9 µM (inactive)"}]}, {"smiles": "COc1ccc(-c2cc(C(=O)NCC(C)C)no2)cc1", "values": [{"measurement": "IC50", "setting": "[19]", "result": "> 29.9 µM (inactive)"}, {"measurement": "IC50", "setting": "[20]", "result": "> 29.9 µM (inactive)"}, {"measurement": "EC50", "setting": "[21]", "result": "> 29.9 µM (inactive)"}, {"measurement": "EC50", "setting": "[22]", "result": "> 29.9 µM (inactive)"}]}, {"smiles": "O=C(CN1C(=O)NC2(CCOc3ccccc32)C1=O)c1ccc(Cl)cc1", "note": "(stereo not drawn)", "values": [{"measurement": "AC50", "setting": "[23]", "result": "47.9 µM (active)"}]}]}
